In experiment [1] the test system is Tequatrovirus T4. Description: Inhibition of Enterobacteria phage T4 DNA polymerase using biotin-labeled oligonucleotide hairpin substrate containing pre-reactive group at 3'-end assessed as loss of hairpin substrate elongation product at 10 uM incubated for 15 mins by PAGE method and filter binding assay.
Experiment [2] has as its system Tequatrovirus T4. The experiment is described as follows: Inhibition of Enterobacteria phage T4 DNA polymerase using biotin-labeled oligonucleotide hairpin substrate containing pre-reactive group at 3'-end assessed as loss of hairpin substrate elongation product at 10 uM incubated for 15 mins in presence of 4000 fold-excess of non-specific T7 RNA polymerase by PAGE method and filter binding assay.

Calls of active or inactive are those of the source. The calls are words filed in the database; no cut-off is given here.

A word on the inhibition: it is the relative decrease from the control value, in per cent.

Turning to `O=C(CCCc1ccc2ccc3cccc4ccc1c2c34)NC/C=C/c1cn([C@H]2C[C@H](O)[C@@H](COP(=O)(O)OP(=O)(O)OP(=O)(O)O)O2)c(=O)[nH]c1=O`, the inhibition in the experiment on Tequatrovirus T4 [1] worked out at 87%. Also, the inhibition result in the experiment with Tequatrovirus T4 [2] was “Active”.

For the origin of these results see ChEMBL document CHEMBL2331473, “Two-component covalent inhibitor” (Bioorg Med Chem, 2013).
